Calls of active or inactive are those of the source. No rule for the calls is given here.
Target: intestinal alkaline phosphatase (Alpi), Mus musculus
Test: activators of mouse IAP enzyme, SAR follow-up, biochemical, luminescence (AID 493146)
Details: purified mouse IAP, luminescent substrate, activation

Row | EC50 | Structure (SMILES)
1 | > 100 µM (inactive) | CCOc1ccccc1NC(=O)CCNS(=O)(=O)c1ccc2[nH]c(=O)oc2c1
2 | > 100 µM (inactive) | O=C(CN1C(=O)/C(=C\c2ccco2)SC1=S)Nc1ccc(O)cc1C(=O)O
3 | > 100 µM (inactive) | CCSc1nnc(NC(=O)CSc2sc3c(O)cc(=O)[nH]c3c2C#N)s1
4 | > 100 µM (inactive) | Cc1ccc(NC(=O)CCNS(=O)(=O)c2ccc3[nH]c(=O)oc3c2)cc1
5 | > 100 µM (inactive) | COc1ccc(NC(=O)CCNS(=O)(=O)c2ccc3[nH]c(=O)oc3c2)cc1Cl
6 | > 100 µM (inactive) | O=C(CN1C(=O)/C(=C/c2ccco2)SC1=S)Nc1ccc(O)c(C(=O)O)c1
7 | > 100 µM (inactive) | N#Cc1c(SCC(=O)Nc2ccc(Cl)cc2Cl)sc2c(O)cc(=O)[nH]c12
8 | > 100 µM (inactive) | O=C(O)CC(C(=O)O)N1C(=O)/C(=C/c2ccc(-c3nc4ccccc4s3)o2)SC1=S (centres undefined)
9 | 82.3 µM | FC(F)(F)c1cccc(NC(=S)NCCC(c2ccccc2)c2ccccc2)c1
10 | > 100 µM (inactive) | O=C(NNC(=O)c1cc(O)c(O)c(O)c1)NC1CCCCC1
11 | > 100 µM (inactive) | COc1ccc(OC)c(NC(=O)CSc2sc3c(O)cc(=O)[nH]c3c2C#N)c1
12 | > 100 µM (inactive) | CCOc1ccccc1CNC(=O)CCNS(=O)(=O)c1ccc2[nH]c(=O)oc2c1
13 | > 100 µM (inactive) | COc1cc(C(=O)NNC(=S)NC(=O)c2ccccc2C)cc(OC)c1OC
14 | > 100 µM (inactive) | N#Cc1c(SCC(=O)Nc2nc3ccc(Br)cc3s2)sc2c(O)cc(=O)[nH]c12
